In experiment [1] the target is T1, cdk2/cyclin E (Homo sapiens, UniProt P24941).
T1 construct: made in house; host or cells: insect cells (baculovirus co-infection)
The experiment is described as follows: Cyclin-Dependent Kinase 2 Assay (cdk-2 inhibition). As to conditions: GST-Rb substrate, 30 min at 30° C. The format is biochemical. The method, then:
(§1) The transformed bacteria were grown overnight to saturation, then diluted in YT broth and incubated at 37° C. for 2 h. The protein was induced by incubation with 0.1 mM isopropylthioglycoside for 3 h. Following sedimentation by centrifugation, the cells were lysed by sonication in STE buffer ([…] NaCl, 10 mM Tris, pH 8.0, 1 mM EDTA) containing 10% sarkosyl. Particulate matter was removed by centrifugation and the lysate was incubated with glutathione-Sepharose at 4° C. The beads were washed with kinase buffer and then quantitation of Coomassie blue-stained proteins separated by SDS-PAGE was performed using a protein standard of known concentration.
(§2) Pre-wet Millipore Multiscreen 96-well filter plates (0.65 μm Durapore filters) with 200 μl kinase buffer (50 mM HEPES, pH 7.5, 10 mM MgCl2, 1 mM EGTA). GST-Rb (0.5 μg) bound to glutathione-Sepharose beads is added in 50 μl per well and the solution removed by application of vacuum. […] Add 0.1 μg cdk4/cyclin D1 (insect cell lysate) to initiate assay. Incubate 30 min at 37° C. Terminate reaction by filtration on Millipore Vacuum Manifold. Wash four times with TNEN (20 mM Tris, pH 8.0, 100 mM Na Cl, 1 mM EDTA, 0.5% nonidet P-40). After drying the plates at room temperature, the filter plates were placed in adapter plates (Packard) and 40 μl of Microscint-O® (Packard) was added to each well. Top Seal A film was used to cover the plates before counting in a Top Count Scintillation Counter.
GST-Rb as described above for cdk4/cyclin D1
Assay conditions for cdk2/cyclin E were identical to those for cdk4/cyclin D1 including the substrate. The concentration of recombinant cdk2/cyclin E in the assay was 0.1 μg per 100 μl assay. Incubation was for 30 min at 30° C.

Experiment [2] has as its system A549. The experiment is described as follows: In vitro tumor cell proliferation, A549. The format is cell-based, human. As to conditions: read-out: In vitro Tumor Cell Proliferation (IC50, μM) Lung A549. The method, then: (§3) The proliferation of tumor cells was measured using a sulforhodamine B assay as described in Skehan, P., et al., J. Natl. Cancer Inst. […] Tumor cells were harvested with trypsin-EDTA, cells that excluded trypan blue were counted, added to 96-well plates and incubated overnight at 37° C. Drug was added to the wells following dilution in culture medium. Three days later, the medium was removed and replenished with medium containing fresh drug and incubated an additional 4 days. The cells were then fixed with 0.1 ml 10% trichloroacetic acid for 60 min at 4° C. The plates were rinsed five times with tap water, air-dried and stained for 30 min with 0.4% sulforhodamine B in 1% acetic acid and air-dried.
(§4) Alternatively, the CyQUANT cell proliferation assay was used to quantify tumor cell proliferation. Tumor cells were harvested with trypsin-EDTA, cells that excluded trypan blue were counted, added to 96-well plates and incubated overnight at 37° C. Drug was added to the wells following dilution in culture medium. Three days later the medium was removed and the plates frozen at −80° C. for at least 30 minutes.

In experiment [3] the test system is DU 145. In words: In vitro tumor cell proliferation, DU 145. Type of experiment: cell-based, human. The following applies: read-out: In vitro Tumor Cell Proliferation (IC50, μM) Prostate DUI45. The protocol: as §3, §4
In experiment [4] the test system is MDA-MB-231. In words: In vitro tumor cell proliferation, MDA-MB-231. Type of experiment: cell-based, human. As to conditions: read-out: In vitro Tumor Cell Proliferation (IC50, μM) Breast MDA-MB-231. The protocol:
as §3, §4

Experiment [5] has as its system DMS-114. In words: In vitro tumor cell proliferation, DMS-114. The following applies: read-out: In vitro Tumor Cell Proliferation (IC50, μM) Lung DMS-114. Type of experiment: cell-based, human. The method, then: as §3, §4
Experiment [6] addresses T2, cdk4/cyclin D1 (Homo sapiens, UniProt P11802).
T2 construct: made in house; host or cells: Sf9 insect cells (Bac-to-Bac baculovirus, pFastBac)
In words: Cyclin-dependent kinase 4 Assay. The following applies: cdk4/cyclin D1, GST-Rb substrate, 10 μM ATP, 30 min at 37° C.; read-out: CDK4 Inhibition IC50. Type of experiment: biochemical. The method, then:
The IC50 values for cdk-4 inhibition were by the following method:
as §1
The cDNA for human cyclin D1 was cloned by RT PCR using […] from MCF-7 cells. […] Bacmid DNA was used to transfect Sf9 insect cells to produce recombinant virus. Following plaque purification of the virus, the viral preparations were amplified until high titer stocks were acheived.
Lysates were prepared by lysis of Sf9 cells coinfected with cdk4 and cyclin D1 in 50 mM HEPES, pH 7.5, 10 mM MgCl2, 1 mM DTT, 0.1 mM phenylmethylsulfonyl fluoride, 5 μg/ml aprotinin, and 5 μg/ml leupeptin using a PARR bomb under 500 p.s.i nitrogen pressure for 5 min at 4° C. Insoluble material was sedimented at 10,000×g for 20 min at 4° C. Glycerol was added to the supernatant to 10% and stored at −80° C. in aliquots.
as §2

Experiment [7] has as its system PC-3. In words: In vitro tumor cell proliferation, PC-3. The format is cell-based, human. The following applies: read-out: In vitro Tumor Cell Proliferation (IC50, μM) Prostate PC-3. The method, then: as §3, §4
Experiment [8] relates to Colo-205. In words: In vitro tumor cell proliferation, Colo-205. Type of experiment: cell-based, human. The following applies: read-out: In vitro Tumor Cell Proliferation (IC50, μM) Colon Colo-205. The protocol: as §3, §4
Experiment [9] has as its system MDA-MB-435. In words: In vitro tumor cell proliferation, MDA-MB-435. The format is cell-based, human. The following applies: read-out: In vitro Tumor Cell Proliferation (IC50, μM) Breast MDA-MB-435. The method, then: as §3, §4
Experiment [10] relates to HT-29. In words: In vitro tumor cell proliferation, HT-29. The format is cell-based, human. The following applies: read-out: In vitro Tumor Cell Proliferation (IC50, μM) Colon HT-29 (converted). The protocol:
as §3, §4
HT-29 is a human colon adenocarcinoma, moderately well-differentiated grade II (HTB 38);

Where [11] appears, read: Homo sapiens, A549, values marked * (mark not explained).
Setting [12] is: values marked * (mark not explained), dihydrochloride.
The mark [13] stands for this setting: Homo sapiens, DU-145, values marked * (mark not explained).
The mark [14] stands for this setting: Homo sapiens, MDA-MB-231, values marked * (mark not explained).
Setting [15] is: Homo sapiens, DMS-114, values marked * (mark not explained).
Setting [16] is: Homo sapiens, PC-3, values marked * (mark not explained).
[17] abbreviates: Homo sapiens, COLO 205, values marked * (mark not explained).
The mark [18] stands for this setting: Homo sapiens, MDA-MB-435, values marked * (mark not explained).
[19] abbreviates: Homo sapiens, HT-29, values marked * (mark not explained).

SMILES strings stand for the structures. “And” between values parts separate entries of the source, which are not always exact repeats. Equal values may be shown once. Where a name gives a salt, the structure may show the parent alone. Read-outs that look alike come from different tables or passages of the source.

T2 sequence (P11802 whole entry): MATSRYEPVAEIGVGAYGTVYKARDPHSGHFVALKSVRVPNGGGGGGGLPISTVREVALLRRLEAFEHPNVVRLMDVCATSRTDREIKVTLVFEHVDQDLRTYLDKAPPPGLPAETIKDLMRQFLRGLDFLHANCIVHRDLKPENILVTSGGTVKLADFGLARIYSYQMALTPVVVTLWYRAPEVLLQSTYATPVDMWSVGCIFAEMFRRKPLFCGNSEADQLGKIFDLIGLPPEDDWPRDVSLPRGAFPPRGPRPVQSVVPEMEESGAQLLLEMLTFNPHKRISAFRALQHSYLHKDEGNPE
T2 sequence (P24385 whole entry partner): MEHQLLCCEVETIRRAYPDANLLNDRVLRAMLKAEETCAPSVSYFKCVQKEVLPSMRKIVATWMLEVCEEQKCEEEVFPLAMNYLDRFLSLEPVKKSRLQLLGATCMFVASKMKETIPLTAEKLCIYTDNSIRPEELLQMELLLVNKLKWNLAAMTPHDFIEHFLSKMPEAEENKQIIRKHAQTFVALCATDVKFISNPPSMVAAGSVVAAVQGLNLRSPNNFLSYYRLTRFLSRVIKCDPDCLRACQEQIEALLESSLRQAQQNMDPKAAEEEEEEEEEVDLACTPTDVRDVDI

As to `NCCCCNc1nc(N[C@H]2CC[C@H](N)CC2)nc2c1ncn2C1CCCC1` [Example 5, 2-[Trans-(4-aminocyclohexyl)amino]-6-[(4-aminobutyl)amino]-9-cyclopentylpurine dihydrochloride], the IC50 was determined as 42 nM in experiment [1]; 1.6 µM in experiment [2] (setting [11]); 1.1 µM in experiment [2] (setting [12]); 2.4 µM in experiment [3] (setting [13]); 2.8 µM in experiment [3] (setting [12]); 2.9 µM in experiment [4] (setting [14]). Moreover, the IC50 in experiment [4] (setting [12]) was 3.2 µM; in [5] (setting [15]), 3.1 µM; in [5] (setting [12]) it was 2.8 µM; in experiment [6] it was 290 nM and 380 nM; in experiment [7] (setting [16]) it was 5.7 µM; in experiment [7] (setting [12]), 7.2 µM. The IC50 in experiment [8] (setting [17]) came to 2.4 µM; in experiment [8] (setting [12]), 1.6 µM; in experiment [9] (setting [18]), 5.7 µM; in [9] (setting [12]), 4.4 µM.

As for `N[C@H]1CC[C@H](Nc2nc(NCCc3ccccn3)c3ncn(C4CCCC4)c3n2)CC1` [Example 12, 2-[Trans-(4-aminocyclohexyl)amino]-6-[2-(2-pyridyl)ethylamino]-9-cyclopentylpurine dihydrochloride], the IC50 is 220 nM in experiment [1]; 10 µM in [3] (setting [13]); 6 µM in experiment [4] (setting [14]); 15 µM in [5] (setting [15]); 11 µM in experiment [5] (setting [12]); 11 µM in experiment [10] (setting [19]). Also, the IC50 in [10] (setting [12]) is 12 µM; in experiment [6], 300 nM and 200 nM; in [7] (setting [16]), 7.9 µM; in experiment [7] (setting [12]), 6.1 µM; in experiment [8] (setting [17]) it was 6.4 µM; in [8] (setting [12]) it was 6.2 µM. In addition, the values for the IC50 in [9] (setting [18]) and in experiment [9] (setting [12]) were 8.7 µM and 9.4 µM, respectively.

With `N[C@H]1CC[C@H](Nc2nc(NCc3nc4ccccc4[nH]3)c3ncn(C4CCCC4)c3n2)CC1` [Example 19, 2-[Trans-(4-aminocyclohexyl)amino]-6-[(2-benzimidazolyl)methylamino]-9-cyclopentylpurine dihydrochloride], the IC50 in experiment [1] was 350 nM; in [3] (setting [13]), 6.4 µM; in experiment [3] (setting [12]), 6.1 µM; in experiment [4] (setting [14]), 1.9 µM; in experiment [4] (setting [12]), 1.7 µM; in experiment [5] (setting [15]), 2.7 µM. The IC50 is 2.9 µM in experiment [5] (setting [12]); 2.7 µM in experiment [10] (setting [19]); 2 µM in [10] (setting [12]); 50 nM and 100 nM in experiment [6]; 1.2 µM in experiment [7] (setting [16]); 1.5 µM in experiment [7] (setting [12]). Further, the IC50 in experiment [8] (setting [17]) is 1.3 µM; in experiment [8] (setting [12]), 1.4 µM; in experiment [9] (setting [18]) it was 2.7 µM; in [9] (setting [12]), 2.3 µM.

`CCCCCNc1nc(N[C@H]2CC[C@H](N)CC2)nc2c1ncn2C1CCCC1` [Example 26, 2-[Trans-(4-aminocyclohexyl)amino]-6-(pentylamino)-9-cyclopentylpurine dihydrochloride]: the IC50 was 80 nM and 36 nM in experiment [1]; 0.73 µM in [3] (setting [13]); 0.95 µM in [3] (setting [12]); 1.2 µM in [4] (setting [14]); 1.4 µM in [4] (setting [12]); 1.8 µM in [5] (setting [15]). Further, the IC50 was 1 µM in [5] (setting [12]); 1.4 µM in experiment [10] (setting [19]); 1.6 µM in [10] (setting [12]); 510 nM and 460 nM in experiment [6]; 1 µM in [7] (setting [16]); 1.4 µM in [7] (setting [12]). Moreover, the IC50 in experiment [8] (setting [17]) is 1.3 µM; in experiment [8] (setting [12]) it was 1.5 µM; in [9] (setting [18]) it was 2.2 µM; in [9] (setting [12]), 2.3 µM.

Consider `N[C@H]1CC[C@H](Nc2nc(NCCc3ccncc3)c3ncn(C4CCCC4)c3n2)CC1` [Example 31, 2-[Trans-(4-aminocyclohexyl)amino]-6-[(4-pyridyl)-2-ethylamino]-9-cyclopentylpurine dihydrochloride], for which the IC50 in experiment [1] was 80 nM and 60 nM; in experiment [2] (setting [11]), 10 µM; in experiment [3] (setting [13]), 6.7 µM; in experiment [3] (setting [12]), 4.4 µM; in [4] (setting [14]), 7.4 µM; in experiment [4] (setting [12]), 8.6 µM. In addition, the IC50 in experiment [5] (setting [15]) was 5.6 µM; in experiment [10] (setting [19]) it was 10 µM; in experiment [10] (setting [12]) it was 7.3 µM; in experiment [6], 490 nM and 1000 nM; in experiment [8] (setting [17]), 5.6 µM; in experiment [8] (setting [12]) it was 6.6 µM. Moreover, the IC50 in [9] (setting [12]) worked out at 10 µM.

In the case of `N[C@H]1CC[C@H](Nc2nc(NCC(F)(F)F)c3ncn(C4CCCC4)c3n2)CC1` [Example 49, 2-[Trans-(4-aminocyclohexyl)amino]-6-[2,2,2-trifluoroethylamino]-9-cyclopentylpurine dihydrochloride], the IC50 in experiment [1] came out at 90 nM; in [2] (setting [11]), 2.2 µM; in experiment [3] (setting [13]), 4.4 µM; in [3] (setting [12]), 4.9 µM; in [4] (setting [14]), 8.6 µM; in experiment [4] (setting [12]) it was 6 µM. In addition, the IC50 in [5] (setting [15]) was 5.6 µM; in [10] (setting [19]), 7.3 µM; in [10] (setting [12]) it was 6 µM; in experiment [6], 2200 nM; in [8] (setting [17]) it was 6.6 µM; in experiment [8] (setting [12]), 5.5 µM. Moreover, the IC50 in experiment [9] (setting [18]) came to 10 µM; in [9] (setting [12]), 12 µM.

These data come from US6413974B1, “6,9,-disubstituted 2-[trans-(4-aminocyclohexyl) amino] purines” (Aventis Pharmaceuticals Inc., priority 1998, dated 2002).
